The values that follow come from the Deep4Chem optical property database.

A short description of this series: solvent given as SMILES.

The compound `CC(C)(C)NC(=O)c1c([Si](C)(C)C)cc2ccc3cccc4ccc1c2c34` registered an absorption maximum (in ClC(Cl)Cl) of 382 nm.

In the case of `CC(C)[Si](C#Cc1ccc(C#C[Si](C(C)C)(C(C)C)C(C)C)c2nc3cc4c(cc3nc12)[C@H]1c2ccccc2[C@@H]4c2ccccc21)(C(C)C)C(C)C`, the absorption maximum by setting is: (in CCCCCC) 435 nm; (in ClCCl) 435 nm.

As to `CN(C)c1ccc2c(-c3cc(C(=O)[O-])ccc3C(=O)[O-])c3ccc(=[N+](C)C)cc-3oc2c1`, the absorption maximum is listed as 538 nm (in CCO) and 549 nm (in O).

Regarding `CCCCN(CCCC)c1ccc(C#Cc2cc(C#Cc3ccc(N(CCCC)CCCC)cc3)c(C#Cc3ccc(C#N)cc3)cc2C#Cc2ccc(C#N)cc2)cc1`, the absorption maximum (in ClCCl) is on record as 435 nm.

Consider `c1ccc(-c2cc(-c3ccc(N(c4ccccc4)c4ccccc4)cc3)cc(-c3ccccc3)n2)cc1`, for which the absorption maximum (in CC#N) is 357 nm; the absorption maximum (in CCCCCC) was 354 nm; the absorption maximum (in CCO) was found to be 362 nm; the absorption maximum (in CO) is recorded as 359 nm; the absorption maximum (in ClCCl) was 360 nm.

As for `Cc1cc(=O)c2ccc(N)cc2o1`, the absorption maximum is, setting by setting: (in C1CCOC1) 323 nm; (in C1COCCO1) 314 nm; (in CC#N) 315 nm; (in CC(C)O) 327 nm; (in CCCCO) 329 nm; (in CCCO) 329 nm. Besides, the absorption maximum by setting is: (in CCOC(C)=O) 315 nm; (in CN(C)C=O) 325 nm; (in CO) 327 nm; (in CS(C)=O) 326 nm; (in ClC(Cl)Cl) 311 nm; (in O) 322 nm.

In turn, `Cc1ccc2[nH]c(-c3ccc(-c4ccc(-c5ccc(-c6nc7cc(C)ccc7[nH]6)cc5)c(C)c4)cc3)nc2c1` came in with an absorption maximum (in CN(C)C=O) of 333 nm.

As to `COc1ccccc1NC1=CC(=O)c2ccccc2C1=O`, the absorption maximum worked out at 468 nm (in CCCCCC) and 476 nm (in CO).

Where the note is “in ClCCl”, `CCCCCCN1C(=O)c2cccc3c(-c4ccc(-c5cc(-c6ccccc6)nn5-c5ccccc5)s4)ccc(c23)C1=O` came in with an absorption maximum of 388 nm.

On to `Cc1cc2nc3c(=O)n(C)c(=O)nc-3n(C)c2cc1C`, for which the absorption maximum (in CC#N) was 444 nm.

Turning to `N#Cc1c(C#N)c2cc(Cl)c(Cl)cc2c2cc(Cl)c(Cl)cc12`, under “in ClC(Cl)Cl”, the absorption maximum turned out to be 343 nm.

Under “in O”, `COc1ccc(-c2cc(N3CCCCC3)c(C#N)c3c2-c2cccc4cccc-3c24)cc1` gave an absorption maximum of 430 nm.

In turn, `Cc1cc(C#N)ccc1N1c2ccccc2C(c2ccccc2)(c2ccccc2)c2ccccc21` had an absorption maximum (in Cc1ccccc1) of 349 nm.

On to `Cc1ccc(-c2cc(C)[o+]c(C)c2)cc1`, for which the absorption maximum is listed as 347 nm (in CC#N) and 365 nm (in ClCCl).

As for `Brc1ccc(/C=C/c2cnc3ccccc3n2)cc1`, the absorption maximum (in ClCCl) is 369 nm.

`C[n+]1cc2ccc3c[n+](C)c4ccccc4c3c2c2ccccc21` yielded an absorption maximum (in CC#N) of 465 nm.

As to `O=C1/C(=C2\Sc3ccc(S(=O)(=O)O)cc3C2=O)Sc2ccc(S(=O)(=O)O)cc21`, the absorption maximum runs as follows: (in C1COCCO1) 530 nm; (in CN(C)C=O) 551 nm; (in CO) 553 nm; (in CS(C)=O) 553 nm; (in O) 546 nm.

`COc1ccc(C2=C(c3ccc(OC)cc3)C(C)(C)c3ccccc32)cc1` came in with an absorption maximum (in C1CCCCC1) of 283 nm.

The compound `CCOC(=O)c1c(NC(C)(C)C)oc(-c2ccc(-c3ccccc3)cc2)c1C(=O)OCC` displayed an absorption maximum (in CC#N) of 355 nm.

`C(#Cc1ccc(C#Cc2ccccc2)cc1)c1ccccc1` yielded an absorption maximum (in ClC(Cl)Cl) of 328 nm.

Take `CC1=CC2=C3C(=C4C(C)=C(c5ccc(-c6nc(-c7ccccc7)c(-c7ccccc7)[nH]6)cc5)S[C@@]4(C)[C@]2(C)S1)C(F)(F)C(F)(F)C3(F)F`: under “in C1CCOC1”, the absorption maximum amounted to 546 nm.

`c1ccc(N(c2ccccc2)c2ccc3ccc4c(N(c5ccccc5)c5ccccc5)ccc5ccc2c3c54)cc1`: the absorption maximum reads like this: (in Cc1ccccc1) 426 nm; (in ClCCl) 423 nm.

For `COC(=O)c1ccc(-c2nc3ccc(N(C)C)cc3s2)cc1`, the absorption maximum by setting is: (in C1CCCCC1) 387 nm; (in CC#N) 392 nm; (in CC(C)O) 393 nm; (in CO) 396 nm; (in CS(C)=O) 405 nm; (in ClC(Cl)Cl) 395 nm. Also, the absorption maximum (in c1ccccc1) is recorded as 394 nm.

Under “in Cc1ccccc1”, `CCCC1=Cc2nc1ccc1[nH]c(cc1CCO)c1nc(ccc3[nH]c2cc3CCC)C(CCC)=C1` yielded an absorption maximum of 637 nm.

For `C[Si]1(C)c2ccc(-c3ccc(N(c4ccccc4)c4ccccc4)cc3)cc2C=Cc2cc(-c3ccc(N(c4ccccc4)c4ccccc4)cc3)ccc21`, the absorption maximum (in ClCCl) amounted to 390 nm.

Regarding `CN(C)c1ccc(/C=C/c2nc3ccccc3o2)cc1`, the absorption maximum (in C1CCCCC1) came to 380 nm and the absorption maximum (in CO) is reported as 390 nm.

In turn, `COc1ccc(N2c3ccc4ccccc4c3-c3c4ccccc4cc[n+]3[B-]2(c2ccccc2)c2ccccc2)cc1` returned an absorption maximum (in Cc1ccccc1) of 520 nm.

Under “in ClCCl”, `O=c1oc2ccccc2cc1-c1ccc(-c2ccc(-c3cc4ccccc4oc3=O)cc2)cc1` gave an absorption maximum of 341 nm.

`CC(C)(C)c1cc(C#Cc2ccc3c(C#Cc4cc(C(C)(C)C)cc(C(C)(C)C)c4)cc4c5cc(C#Cc6cc(C(C)(C)C)cc(C(C)(C)C)c6)ccc5c(C#Cc5cc(C(C)(C)C)cc(C(C)(C)C)c5)cc4c3c2)cc(C(C)(C)C)c1` gave an absorption maximum (in ClCCl) of 416 nm.

On to `CCn1c(-c2ccc(-c3ccc4ccc5cccc6ccc3c4c56)cc2)c(-c2ccc3ccccc3c2)c(-c2ccc3ccccc3c2)c1-c1ccc(-c2ccc3ccc4cccc5ccc2c3c45)cc1`, for which the absorption maximum (in CCOC(C)=O) worked out at 344 nm.

Consider `CCCCCCN1C(=O)c2cccc3c(-c4ccc(OC)s4)ccc(c23)C1=O`, for which the absorption maximum (in ClC(Cl)Cl) is listed as 407 nm.

Turning to `Cc1cc(C)nc(N)n1`, the absorption maximum is listed as 297 nm (in CCO), 296 nm (in CO) and 284 nm (in O).

The compound `Oc1ccc2ccccc2c1-c1nc(-c2ccccc2)c2ccccn12` showed an absorption maximum (in C1CCCCC1) of 361 nm; an absorption maximum (in CC#N) of 355 nm; an absorption maximum (in CO) of 343 nm; an absorption maximum (in ClCCl) of 362 nm; an absorption maximum (in O) of 355 nm.

Take `COC(=O)C1=C(C(=O)OC)C2(c3ccccc3-c3c(Br)cc(Br)cc32)C2(/C=C/c3ccc(Cl)cc3)c3cc(OC)c(OC)cc3CCN12` (configuration not stated): the absorption maximum (in ClCCl) came to 328 nm.

As to `COCCOCCOCCOc1cc(C=O)c(OCCOCCOCCOC)cc1C=O`, the absorption maximum turned out to be 393 nm (in CC(C)(C)O); 390 nm (in CC(C)CO); 391 nm (in CC(C)O); 378 nm (in CCCCO); 367 nm (in CCCO); 364 nm (in CCO). The absorption maximum by setting is: (in CN(C)C=O) 393 nm; (in CNC=O) 350 nm; (in CO) 354 nm; (in NC=O) 354 nm; (in O) 394 nm.
